The values that follow come from patent US9493438B2, “4,4-difluoro-piperidine-compounds” (ROTTAPHARM BIOTECH S.R.L., priority 2012, dated 2016).

The target of this experiment is T1, human OX1 receptors (Homo sapiens, UniProt O43613).
T1 construct: expressed in transfected cells; host or cells: CHO cells
T1 sequence (O43613 1-425): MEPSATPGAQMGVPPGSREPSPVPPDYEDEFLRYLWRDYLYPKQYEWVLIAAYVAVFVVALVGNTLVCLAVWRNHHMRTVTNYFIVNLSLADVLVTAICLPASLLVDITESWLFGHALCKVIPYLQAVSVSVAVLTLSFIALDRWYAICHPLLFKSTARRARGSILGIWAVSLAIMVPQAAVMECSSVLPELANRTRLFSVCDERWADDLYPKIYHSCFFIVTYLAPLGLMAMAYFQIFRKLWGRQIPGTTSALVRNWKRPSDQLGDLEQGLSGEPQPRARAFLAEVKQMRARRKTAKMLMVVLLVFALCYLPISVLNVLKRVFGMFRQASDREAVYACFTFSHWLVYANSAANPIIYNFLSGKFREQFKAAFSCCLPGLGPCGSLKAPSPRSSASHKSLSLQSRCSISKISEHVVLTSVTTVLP
The experiment in a line: antagonistic activity against human OX1 receptor, [Ca2+]i fluorimetry in transfected CHO cells. To be noted: CHO cells transfected with human recombinant OX1; activated with orexin-A 3 nM; pKb = co-logarithm of apparent dissociation constant (modified Cheng Prusoff). It counts as cell-based. Here is the method:
Thus the plate was loaded with the calcium dye (Fluo-4NW/probenecid in HBSS, Hepes 20 mM, pH 7.4; Invitrogen) at 37° C. for 60 min. Afterward the temperature was equilibrated at 22° C. for 15 min and the [Ca2+]i measured directly on the plate by using a fluorescent plate reader (CeliLux Perkin Elmer).
Invention compounds were dissolved in DMSO, diluted in HBSS (DMSO, 0.3% final) and added to the wells. After 5 min CHO cells were activated with orexin-A, 3 nM while HEK-293 cells were activated with orexin-B, 10 nM. […] The antagonistic activity has been expressed as pKb (co-logarithm of the apparent dissociation constant calculated by using the modified Cheng Prusoff equation). The results are expressed as percent of control specific […] response ((measured specific response/control specific agonist response)×100) obtained in the presence of the test compounds.
The IC50 values (concentration causing a half-maximal inhibition of the control specific agonist response) were determinated by non-linear regression analysis of the concentration curves generated with mean replicate values using hill equation curve fitting. The IC50 values are obtained by the arithmetical mean of at least two experiments.
With `Cc1nc(C(=O)N2CCC(F)(F)CC2CNc2ccc(Cl)cn2)c(-c2ccccc2)s1` (racemic) [Compound 1, (RS)(2-(((5-chloropyridin-2-yl)amino)methyl)-4,4-difluoropiperidin-1-yl)(2-methyl-5-phenylthiazol-4-yl)methanone], the Kb was 10 nM.
`Cc1ccc(-n2nccn2)c(C(=O)N2CCC(F)(F)CC2CNc2ccc(C(F)(F)F)cn2)c1` (racemic) [Compound 5, (RS)(4,4-difluoro-2-(((5-(trifluoromethyl)pyridin-2-yl)amino)methyl)piperidin-1-yl)(5-methyl-2-(2H-1,2,3-triazol-2-yl)phenyl)methanone]: the Kb was 5.01 nM.
The figure for `Cc1ccc(-c2ncccn2)c(C(=O)N2CCC(F)(F)CC2CNc2ccc(Cl)cn2)c1` (racemic) [Compound 6, (RS)(2-(((5-chloropyridin-2-yl)amino)methyl)-4,4-difluoropiperidin-1-yl)(5-methyl-2-(pyrimidin-2-yl)phenyl)methanone] is 5.01 nM.
The result for `CCOc1ccccc1C(=O)N1CCC(F)(F)CC1CNc1ccc(Cl)cn1` (racemic) [Compound 10, (RS)(2-(((5-chloropyridin-2-yl)amino)methyl)-4,4-difluoropiperidin-1-yl)(2-ethoxyphenyl)methanone] reads 7.94 nM.
The result for `O=C(c1ccccc1OCC1CC1)N1CCC(F)(F)CC1CNc1ccc(Cl)cn1` (racemic) [Compound 12, (RS)(2-(((5-chloropyridin-2-yl)amino)methyl)-4,4-difluoropiperidin-1-yl)(2-(cyclopropylmethoxy)phenyl)methanone] reads 2 nM; that for `O=C(c1ccccc1OC1CCCC1)N1CCC(F)(F)CC1CNc1ccc(Cl)cn1` (racemic) [Compound 13, (RS)(2-(((5-chloropyridin-2-yl)amino)methyl)-4,4-difluoropiperidin-1-yl)(2-(cyclopentyloxy)phenyl)methanone], 100 nM; that for `Cc1ccc(-c2ncccn2)c(C(=O)N2CCC(F)(F)CC2CNc2ccc(Cl)cn2)n1` (racemic) [Compound 14, (RS)(2-(((5-chloropyridin-2-yl)amino)methyl)-4,4-difluoropiperidin-1-yl)(6-methyl-3-(pyrimidin-2-yl)pyridin-2-yl)methanone], 2.51 nM.
On to `Cc1cnc(-c2ncccn2)c(C(=O)N2CCC(F)(F)CC2CNc2ccc(Cl)cn2)c1` (racemic) [Compound 15, (RS)(2-(((5-chloropyridin-2-yl)amino)methyl)-4,4-difluoropiperidin-1-yl)(5-methyl-2-(pyrimidin-2-yl)pyridin-3-yl)methanone], for which the Kb was 126 nM.
The result for `O=C(c1cc(Cl)ccc1-c1ncccn1)N1CCC(F)(F)CC1CNc1ccc(Cl)cn1` (racemic) [Compound 19, (RS)(5-chloro-2-(pyrimidin-2-yl)phenyl)(2-(((5-chloropyridin-2-yl)amino)methyl)-4,4-difluoropiperidin-1-yl)methanone] reads 5.01 nM; that for `O=C(c1ccccc1OCc1ccccc1)N1CCC(F)(F)CC1CNc1ccc(Cl)cn1` (racemic) [Compound 21, (RS)(2-(benzyloxy)phenyl)(2-(((5-chloropyridin-2-yl)amino)methyl)-4,4-difluoropiperidin-1-yl)methanone], 5.01 nM.
The result for `O=C(c1nccc2ccccc12)N1CCC(F)(F)CC1CNc1ccc(Cl)cn1` (racemic) [Compound 22, (RS)(2-(((5-chloropyridin-2-yl)amino)methyl)-4,4-difluoropiperidin-1-yl)(isoquinolin-1-yl)methanone] reads 0.631 nM.
With `O=C(c1ccncc1-c1ncccn1)N1CCC(F)(F)CC1CNc1ccc(Cl)cn1` (racemic) [Compound 28, (RS)(2-(((5-chloropyridin-2-yl)amino)methyl)-4,4-difluoropiperidin-1-yl)(3-(pyrimidin-2-yl)pyridin-4-yl)methanone], the Kb is 15.8 nM.
The figure for `Cc1ccc(-c2ncccn2)c(C(=O)N2CCC(F)(F)CC2CNc2ccc(C#N)cn2)n1` (racemic) [Compound 29] is 15.8 nM; for `Cc1ncc(-c2ccc(F)cc2C(=O)N2CCC(F)(F)CC2CNc2ccc(C(F)(F)F)cn2)cn1` (racemic) [Compound 30, (RS)(4,4-difluoro-2-(((5-(trifluoromethyl)pyridin-2-yl)amino)methyl)piperidin-1-yl)(5-fluoro-2-(2-methylpyrimidin-5-yl)phenyl)methanone] it is 25.1 nM; for `O=C(c1nccc2ccccc12)N1CCC(F)(F)CC1CNc1ncc(C(F)(F)F)cc1F` (racemic) [Compound 33, (RS)(4,4-difluoro-2-(((3-fluoro-5-(trifluoromethyl)pyridin-2-yl)amino)methyl)piperidin-1-yl)(isoquinolin-1-yl)methanone] it is 2 nM.
The result for `O=C(c1nccc2ccccc12)N1CCC(F)(F)CC1CNc1ccc(C(F)(F)F)cn1` (racemic) [Compound 34, (RS)(4,4-difluoro-2-(((5-(trifluoromethyl)pyridin-2-yl)amino)methyl)piperidin-1-yl)(isoquinolin-1-yl)methanone] reads 2.51 nM; that for `O=C(c1ccnc2ccccc12)N1CCC(F)(F)CC1CNc1ccc(C(F)(F)F)cn1` (racemic) [Compound 35], 31.6 nM.
The figure for `Cc1ccc(-c2ncccn2)c(C(=O)N2CCC(F)(F)CC2COc2ccc(C(F)(F)F)cn2)n1` (racemic) [Compound 48, (±)(4,4-difluoro-2-(((5-(trifluoromethyl)pyridine-2-yl)oxy)methyl)piperidin-1-yl)(6-methyl-3-(pyrimidin-2-yl)pyridin-2-yl)methanone] is 7.94 nM.
On to `Cc1ccc(-c2cccnc2)c(C(=O)N2CCC(F)(F)CC2CNc2ccc(C(F)(F)F)cn2)n1` (racemic) [Compound 50], for which the Kb was 5.01 nM.
For the molecule `Cc1ccc(-c2ccncc2)c(C(=O)N2CCC(F)(F)CC2CNc2ccc(C(F)(F)F)cn2)n1` (racemic) [Compound 52, (RS) (4,4-difluoro-2-(((5-(trifluoromethyl)pyridin-2-yl)amino)methyl)piperidin-1-yl)(6-methyl-[3,4′-bipyridin]-2-yl)methanone], the Kb was 39.8 nM.
The figure for `O=C(c1ncccc1-c1ncccn1)N1CCC(F)(F)CC1CNc1ccc(C(F)(F)F)cn1` (racemic) [Compound 54, (RS) (4,4-difluoro-2-(((5-(trifluoromethyl)pyridin-2-yl)amino)methyl)piperidin-1-yl)(3-(pyrimidin-2-yl)pyridin-2-yl)methanone] is 3.16 nM; for `Cc1nc(C(=O)N2CCC(F)(F)CC2CNc2ccc(Cl)cn2)c(-c2ccccc2)s1` (single isomer, unassigned; isomer a) [Compound 2, (2-(((5-chloropyridin-2-yl)amino)methyl)-4,4-difluoropiperidin-1-yl)(2-methyl-5-phenylthiazol-4-yl)methanone (isomer A)] it is 2 nM.
The figure for `Cc1ccc(-c2ncccn2)c(C(=O)N2CCC(F)(F)CC2CNc2ccc(Cl)cn2)c1` (single isomer, unassigned; isomer a) [Compound 7, (2-(((5-chloropyridin-2-yl)amino)methyl)-4,4-difluoropiperidin-1-yl)(5-methyl-2-(pyrimidin-2-yl)phenyl)methanone (isomer A)] is 2.51 nM; for `Cc1ccc(-n2nccn2)c(C(=O)N2CCC(F)(F)CC2CNc2ccc(Cl)cn2)n1` (single isomer, unassigned; isomer a) [Compound 8, (2-(((5-chloropyridin-2-yl)amino)methyl)-4,4-difluoropiperidin-1-yl)(6-methyl-3-(2H-1,2,3-triazol-2-yl)pyridin-2-yl)methanone (isomer A)] it is 1.58 nM.
The figure for `O=C(c1nccc2ccccc12)N1CCC(F)(F)CC1CNc1ccc(Cl)cn1` (single isomer, unassigned; isomer a) [Compound 23, (2-(((5-chloropyridin-2-yl)amino)methyl)-4,4-difluoropiperidin-1-yl)(isoquinolin-1-yl)methanone (isomer A)] is 79.4 nM.
Consider `Cc1ccc(-c2ccccc2)c(C(=O)N2CCC(F)(F)CC2CNc2ccc(C(F)(F)F)cn2)n1` (single isomer, unassigned; isomer a) [Compound 37, (4,4-difluoro-2-(((5-(trifluoromethyl)pyridin-2-yl)amino)methyl)piperidin-1-yl)(6-methyl-3-phenylpyridin-2-yl)methanone (isomer A)], for which the Kb was 200 nM.
The result for `O=C(c1nc(C(F)(F)F)ccc1-c1ncccn1)N1CCC(F)(F)CC1CNc1ccc(C(F)(F)F)cn1` (single isomer, unassigned; isomer a) [Compound 40, (4,4-difluoro-2-(((5-(trifluoromethyl)pyridin-2-yl)amino)methyl)piperidin-1-yl)(3-(pyrimidin-2-yl)-6-(trifluoromethyl)pyridin-2-yl)methanone (isomer A)] reads 63.1 nM.

Usually Kb stands for the affinity of an antagonist, worked out from how it opposes an agonist.
